≈ marks a conversion by molar mass, not a printed value. One block for each compound: values may come before it.
Columns and labels:
MCF7 [1] = test: cells; assay type: functional, cell-based; conditions: Homo sapiens
Description: Antiproliferative activity against human MCF7 cells by MTT assay

HepG2 [2] = test: Antiproliferative activity against human HepG2 cells by MTT assay; assay type: functional, cell-based
A549 [3] = test: cells; assay type: functional, cell-based; conditions: Homo sapiens
Description: Antiproliferative activity against human A549 cells by MTT assay

HeLa [4] = test: Antiproliferative activity against human HeLa cells by MTT assay; assay type: functional, cell-based
DU-145 [5] = test: Antiproliferative activity against human DU145 cells by MTT assay; assay type: functional, cell-based
NIH3T3 = test: Antiproliferative activity against mouse NIH/3T3 cells by MTT assay; assay type: functional, cell-based
HeLa [6] = test: Potency index, ratio of podophyllotoxin IC50 to test compound IC50 for antiproliferative activity against human HeLa cells; assay type: functional
MCF7 [7] = test: Potency index, ratio of podophyllotoxin IC50 to test compound IC50 for antiproliferative activity against human MCF7 cells; assay type: functional
DU-145 [8] = test: Potency index, ratio of podophyllotoxin IC50 to test compound IC50 for antiproliferative activity against human DU145 cells; assay type: functional
A549 [9] = test: Potency index, ratio of podophyllotoxin IC50 to test compound IC50 for antiproliferative activity against human A549 cells; assay type: functional
HepG2 [10] = test: Potency index, ratio of podophyllotoxin IC50 to test compound IC50 for antiproliferative activity against human HepG2 cells; assay type: functional
HCT-116 = test: Antiproliferative activity against human HCT116 cells by MTT assay; assay type: functional, cell-based
PC-3 = test: Antiproliferative activity against human PC3 cells by MTT assay; assay type: functional, cell-based
K562 = test: Antiproliferative activity against human K562 cells by MTT assay; assay type: functional, cell-based
U-251 = test: Antiproliferative activity against human U251 cells by MTT assay; assay type: functional, cell-based
SK-BR-3 = test: Antiproliferative activity against human SKBR3 cells by MTT assay; assay type: functional, cell-based
[11] = Antiproliferative activity against human SMCC7721 cells by MTT assay; assay type: functional, cell-based
LNCaP = test: Antiproliferative activity against human LNCAP cells by MTT assay; assay type: functional, cell-based
K562/Adr = test: Antiproliferative activity against human K562/ADR cells by MTT assay; assay type: functional, cell-based
HFF = test: Antiproliferative activity against human HFF cells by MTT assay; assay type: cell-based
L02 = test: Antiproliferative activity against human HL7702 cells by MTT assay; assay type: cell-based
MCF7 [12] = test: Antiproliferative activity against human MCF7 cells assessed as reduction in cell viability after 72 hrs by MTT assay; assay type: functional, cell-based; conditions: MCF7, 72 h
MDA-MB-231 [13] = test: Antiproliferative activity against human MDA-MB-231 cells assessed as reduction in cell viability after 72 hrs by MTT assay; assay type: functional, cell-based; conditions: MDA-MB-231, 72 h, read-out: IC50
MDA-MB-468 [14] = test: Antiproliferative activity against human MDA-MB-468 cells assessed as reduction in cell viability after 72 hrs by MTT assay; assay type: functional, cell-based; conditions: MDA-MB-468, 72 h
MDA-MB-231 [15] = test: Potency index, ratio of 5-fluorouracil IC50 to test compound IC50 for antiproliferative activity against human MDA-MB-231 cells; assay type: functional
MDA-MB-468 [16] = test: Potency index, ratio of 5-fluorouracil IC50 to test compound IC50 for antiproliferative activity against human MDA-MB-468 cells; assay type: functional
MCF7 [17] = test: Potency index, ratio of 5-fluorouracil IC50 to test compound IC50 for antiproliferative activity against human MCF7 cells; assay type: functional
MGC-803 [18] = test: Antiproliferative activity against human MGC803 cells assessed as reduction in cell viability after 72 hrs by MTT assay; assay type: functional, cell-based; conditions: MGC-803, 72 h
BGC-823 = test: Antiproliferative activity against human BGC823 cells assessed as reduction in cell viability after 72 hrs by MTT assay; assay type: functional, cell-based; conditions: BGC-823, 72 h
SGC-7901 = test: Antiproliferative activity against human SGC7901 cells assessed as reduction in cell viability after 72 hrs by MTT assay; assay type: functional, cell-based; conditions: SGC-7901, 72 h
Tubulin = test: Inhibition of tubulin polymerization (unknown origin); assay type: protein-complex assay, Homo sapiens
MGC-803 [19] = test: Antitumour activity against human MGC803 cells xenografted in BALB/c nude mice assessed as inhibition of tumour growth at 60 mg/kg, ig administered for 21 days relative to control; assay type: functional; conditions: Mus musculus, MGC-803, po, 504 h; read-out: TGI
A549 [20] = test: Antiproliferative activity against human A549 cells assessed as reduction in cell viability after 48 hrs by MTT assay; assay type: functional, cell-based; conditions: A549, 48 h
HL-60 = test: Antiproliferative activity against human HL60 cells assessed as reduction in cell viability after 48 hrs by MTT assay; assay type: functional, cell-based; conditions: HL-60, 48 h
SW480 [21] = test: Antiproliferative activity against human SW480 cells assessed as reduction in cell viability after 48 hrs by MTT assay; assay type: functional, cell-based; conditions: SW480, 48 h
[22] = Antiproliferative activity against human SMCC7721 cells assessed as reduction in cell viability after 48 hrs by MTT assay; assay type: functional, cell-based
A549 [23] = test: Potency index, ratio of etoposide IC50 to test compound IC50 for antiproliferative activity against human A549 cells; assay type: functional
MCF7 [24] = test: Potency index, ratio of etoposide IC50 to test compound IC50 for antiproliferative activity against human MCF7 cells; assay type: functional
SW480 [25] = test: Potency index, ratio of etoposide IC50 to test compound IC50 for antiproliferative activity against human SW480 cells; assay type: functional
[26] = Potency index, ratio of etoposide IC50 to test compound IC50 for antiproliferative activity against human […] cells; assay type: functional
A549 [27] = test: Potency index, ratio of cisplatin IC50 to test compound IC50 for antiproliferative activity against human A549 cells; assay type: functional
MCF7 [28] = test: Potency index, ratio of cisplatin IC50 to test compound IC50 for antiproliferative activity against human MCF7 cells; assay type: functional
SW480 [29] = test: Potency index, ratio of cisplatin IC50 to test compound IC50 for antiproliferative activity against human SW480 cells; assay type: functional
[30] = Potency index, ratio of cisplatin IC50 to test compound IC50 for antiproliferative activity against human […] cells; assay type: functional
DU-145 [31] = test: Antiproliferative activity against human DU145 cells by SRB assay; assay type: functional, cell-based
HeLa [32] = test: Antiproliferative activity against human HeLa cells by SRB assay; assay type: functional, cell-based
HepG2 [33] = test: Antiproliferative activity against human HepG2 cells by SRB assay; assay type: functional, cell-based
A549 [34] = test: Antiproliferative activity against human A549 cells by SRB assay; assay type: functional, cell-based
SK-OV-3 = test: Antiproliferative activity against human SKOV3 cells by SRB assay; assay type: functional, cell-based
MCF7 [35] = test: Antiproliferative activity against human MCF7 cells by SRB assay; assay type: functional, cell-based
MCF7-DOX = test: Antiproliferative activity against human MCF7/Dox cells by SRB assay; assay type: functional, cell-based
HepG2 [36] = test: Potency index, ratio of etoposide IC50 to test compound IC50 for antiproliferative activity against human HepG2 cells by SRB assay; assay type: functional; conditions: pooled result: one value given for 7 cell lines, strains, targets or settings

SMILES: COc1cc([C@@H]2c3cc4c(cc3[C@H](NC(=O)c3cn(-c5ccc(Cl)cc5)nn3)[C@H]3COC(=O)[C@H]23)OCO4)cc(OC)c1OC
IC50 (MCF7 [1]): 0.7 to 1.21 µM
IC50 (HepG2 [2]): 0.7 to 1.21 µM
IC50 (A549 [3]): 0.7 to 1.21 µM
IC50 (HeLa [4]): 0.7 to 1.21 µM
IC50 (DU-145 [5]): 0.7 to 1.21 µM
IC50 (NIH3T3): 0.7 to 1.21 µM
Ratio IC50 (HeLa [6]): 3.8 - 8.5
Ratio IC50 (MCF7 [7]): 3.8 - 8.5
Ratio IC50 (DU-145 [8]): 3.8 - 8.5
Ratio IC50 (A549 [9]): 3.8 - 8.5
Ratio IC50 (HepG2 [10]): 3.8 - 8.5

SMILES: COC(=O)c1ccc(-c2cn(CC(=O)O[C@H]3c4cc5c(cc4[C@@H](c4cc(OC)c(OC)c(OC)c4)[C@H]4C(=O)OC[C@@H]43)OCO5)nn2)cc1
IC50 (MCF7 [1]): 21.1 to 124 µM
IC50 (HCT-116): 19.6 to 55.3 µM
IC50 (A549 [3]): 21.1 to 124 µM
IC50 (PC-3): 21.1 to 124 µM
IC50 (K562): 19.6 to 55.3 µM
IC50 (U-251): 19.6 to 55.3 µM
IC50 (SK-BR-3): 19.6 to 55.3 µM
IC50 [11]: 19.6 to 55.3 µM
IC50 (LNCaP): 19.6 to 55.3 µM
IC50 (K562/Adr): 19.6 to 55.3 µM
IC50 (HFF): 195 µM
IC50 (L02): 565 µM

IC50 (MCF7 [12]): 0.8 to 1.7 µM
IC50 (MDA-MB-231 [13]): 0.8 to 1.7 µM
IC50 (MDA-MB-468 [14]): 0.8 to 1.7 µM
SMILES: COc1cc(Cn2cc(CN3c4ccccc4Sc4ccccc43)nn2)cc(OC)c1OC
Ratio IC50 (MDA-MB-231 [15]): 6.2 - 15.8
Ratio IC50 (MDA-MB-468 [16]): 6.2 - 15.8
Ratio IC50 (MCF7 [17]): 6.2 - 15.8

IC50 (MGC-803 [18]): 0.4 to 3.5 µg/mL (≈ 0.97 to 8.49 µM)
IC50 (BGC-823): 0.4 to 3.5 µg/mL (≈ 0.97 to 8.49 µM)
IC50 (SGC-7901): 0.4 to 3.5 µg/mL (≈ 0.97 to 8.49 µM)
IC50 (Tubulin): 2.4 µM
SMILES: Cc1cc(=O)oc2cc(OCc3cn(-c4ccc(S(N)(=O)=O)cc4)nn3)ccc12
inhibition in vivo at 60 mg/kg (MGC-803 [19]): 64.2%

IC50 (A549 [20]): 0.43 to 3.5 µM
IC50 (HL-60): 0.43 to 3.5 µM
IC50 (SW480 [21]): 0.43 to 3.5 µM
SMILES: CCCC(=O)OC[C@H]1O[C@@H](OC(COCc2cn([C@H]3c4cc5c(cc4[C@@H](c4cc(OC)c(OC)c(OC)c4)[C@H]4C(=O)OC[C@@H]43)OCO5)nn2)COCc2cn([C@H]3c4cc5c(cc4[C@@H](c4cc(OC)c(OC)c(OC)c4)[C@H]4C(=O)OC[C@@H]43)OCO5)nn2)[C@H](OC(=O)CCC)[C@@H](OC(=O)CCC)[C@@H]1OC(=O)CCC (some centres undefined)
IC50 [22]: 0.43 to 3.5 µM
Ratio IC50 (A549 [23]): 2.8 - 21.3
Ratio IC50 (MCF7 [24]): 2.8 - 21.3
Ratio IC50 (SW480 [25]): 2.8 - 21.3
Ratio IC50 [26]: 2.8 - 21.3
Ratio IC50 (A549 [27]): 2.8 - 21.3
Ratio IC50 (MCF7 [28]): 2.8 - 21.3
Ratio IC50 (SW480 [29]): 2.8 - 21.3
Ratio IC50 [30]: 2.8 - 21.3

IC50 (DU-145 [31]): 0.18 to 9.92 µM
IC50 (HeLa [32]): 0.18 to 9.92 µM
IC50 (HepG2 [33]): 0.18 to 9.92 µM
IC50 (A549 [34]): 0.18 to 9.92 µM
IC50 (SK-OV-3): 0.18 to 9.92 µM
IC50 (MCF7 [35]): 0.18 to 9.92 µM
IC50 (MCF7-DOX): 0.18 to 9.92 µM
SMILES: CO/N=C1\C(=O)N(CCOCCn2cc(CN3C(=O)/C(=N\OC)c4ccccc43)nn2)c2ccccc21
Ratio IC50 (HepG2 [36]): 1.55

— ChEMBL document CHEMBL4342418, “1,2,3-Triazole-containing hybrids as potential anticancer agents: Current developments, action mechanisms and structure-activity relationships” (Eur J Med Chem, 2019)
